Results taken from publication PMC6736837, “^18F-labelled triazolyl-linked argininamides targeting the neuropeptide Y Y1R for PET imaging of mammary carcinoma” (Scientific Reports, 2019).
Entries after “also recorded” stand apart in the source; their conditions may differ.

Tests used:
MCF-7-Y1 tumour slices = assay: In-vitro autoradiography on MCF-7-Y1 tumour xenograft slices; assay type: binding, human; conditions: blocking with 1 µM and 10 µM BIBP3226
Description: MCF-7-Y1 tumour bearing mice were sacrificed by cervical dislocation under deep isoflurane anesthesia and tumours were excised and subsequently frozen in a hexane/dry ice bath (−70 °C). MCF-7-Y1 tumour slices (14 µm) were prepared on a cryostat microtome HM 500 O (Microm, Walldorf) and thaw-mounted on Histobond® adhesive glass slides (Marienfeld, Lauda-Königshofen).
For autoradiography studies slides were thawed and pre-incubated for 15 min in incubation buffer (50 mM TRIS HCl, pH 7.4, containing 120 mM NaCl, 5 mM MgCl2,) at room temperature. Thereafter, 800 µL of incubation buffer, containing 0.1 MBq of the respective radiotracer were pipetted on the slide and incubated at room temperature for 60 min. For displacement studies BIBP3226 (1 µM or 10 µM) was added to the incubation buffer before pipetting on the slides. Afterwards slides were washed by placing in ice cold incubation buffer (3 × 2 min) followed by short dipping in ice cold distilled water. Slides were carefully dried in a stream of warm air and finally placed on an autoradiography film (Fuji Imaging Plate BAS-IP SR 2025 E, Fujifilm, Düsseldorf) overnight prior to readout (25 µm resolution) on the autoradiograph (HD-CR-35 Bio, Raytest, Straubenhardt) and analysis with the software AIDA (Raytest). Additional sections were stained with hematoxylin and eosin (H&E) for comparison with the autoradiography images.

MCF-7-Y1 cells = assay: Cellular accumulation assay in MCF-7-Y1 cells; assay type: cell-based, human; conditions: nonspecific binding with 10 µM BIBP3226; [^18F]12 at 30 and 60 min
Description: MCF-7-Y1 is a subclone that originated in Prof. […] MCF-7-Y1 cells were cultivated in MEM Earle´s liquid medium with 2.2 g/L NaHCO3 (Merck Biochrom, Darmstadt) containing 10% FBS and 1% L-glutamine. All cells were cultured under sterile conditions in a humidified atmosphere containing 5% CO2 at 37 °C. Cells were routinely passaged twice a week.
The cellular accumulation of Y1R radioligands by MCF-7-Y1 cells was measured: On the day prior to the experiment, 300,000 cells per well were seeded into 24-well plates (Greiner Bio-One). Attached cells were washed twice with cold PBS and 450 µL of assay medium (cell culture medium containing 0.1% BSA) were added to the cells for total binding. For non-specific binding, 400 µL of assay medium and 50 µL of medium containing 10 µM BIBP3226 were added. Finally, 50 µL of medium containing approx. 15 kBq of the respective radiotracer were added to each well, and cells were incubated at 37 °C for 10, 30, 60 or 90 min. After incubation, cells were washed with 500 µL of ice-cold PBS and lysed with 600 µL of warm 1 M NaOH. The lysed cells were transferred to counting tubes and analysed in the γ-counter (Wallac Wizard, Perkin Elmer, Waltham, MA, USA). Separate tubes containing 50 µL of medium with the radiotracer (approx. 15 kBq) were analysed as reference samples. Experiments were performed in sextuplicate (n = 6).

[1] = Octanol-water distribution coefficient logD7.4, shake flask method; assay type: physicochemical; conditions: 1-octanol/PBS, pH 7.4, PBS/1-octanol, read-out: logD7.4 experimental
Description: The lipophilicity of the radioligands was determined by the distribution coefficient logD7.4. The respective radioligand (10 µL, about 25 kBq) was added to a mixture of PBS (500 µL) and 1-octanol (500 µL) and the emulsion was vortexed for 1 min. After centrifugation 3 × 100 µL were taken of each layer and analysed by a γ-counter. The partition coefficient was calculated as logD7.4=log(cpmoctanol/cpmPBS) . Data were expressed as mean values ± SD from three experiments.

MCF-7-Y1 tumours = assay: Small animal PET in MCF-7-Y1 xenografted nude mice; assay type: in vivo, mouse; conditions: 45–60 min p.i., blocking by co-injection of BIBP3226 1 mg/kg
Description: For the NPY Y1R xenograft model, female NMRI nude mice (HsdCpb:NMRI-Foxn1^nu) were purchased from Envigo (Horst, The Netherlands) at the age of three weeks. Mice were kept in groups of four to five animals in individually ventilated cages in a twelve hours dark/light cycle with unlimited access to water and standard chow. At the age of nine to ten weeks one 17β-estradiol pellet per animal (0.72 mg per pellet, 3 mm diameter) with a 60-day release time (Innovative Research of America, Sarasota, FL, USA) was subcutaneously implanted on the back under isoflurane anesthesia. After three days, approximately 10^6 MCF-7-Y1 tumour cells (in 50 µL PBS) were mixed with Matrigel (50 µL, BD Biosciences, Heidelberg) and then injected subcutaneously at the back. Tumour diameters and weight of the animals were recorded five times a week. Imaging studies were performed four weeks after inoculation of the cells.
Small animal PET scans were performed on an Inveon™ microPET scanner (Siemens Healthcare, Erlangen) under isoflurane anesthesia (3%). Tumour bearing mice (26–35 g, n = 2–3 for each radioligand) were intravenously injected into the tail vein with the respective radiotracer (1.5–4.2 MBq in about 100 µL of saline) under isoflurane anesthesia (3–4%). Static images were acquired for 15 min starting 45 min p.i. of the radiotracer. For displacement studies, the same mice were co-injected with the radiotracer ([^18F]12 and [^18F]13 only) and BIBP3226 (1 mg/kg). Images were corrected for decay and attenuation and MAP (iterative maximum a posteriori) images were reconstructed using the built-in software of the PET scanner. Evaluation of the MAP images was conducted using the software PMOD (version 3.6, PMOD Technologies LLC, Zürich). Regions of interests (ROIs) were drawn and radioactivity concentration within these regions was obtained from the mean values and calculated as percentage of the total injected dose per gram tissue (% ID/g).

[2] = Binding to human plasma proteins by gel filtration; assay type: in vitro ADME; conditions: 37 °C, read-out: Free fraction in plasma
Description: The binding of ^18F-labelled compounds to plasma proteins was determined using gel filtration columns(illustra™ MicroSpin™ G-50 Columns, GE Healthcare Life Sciences, Freiburg). An aliquot of the radiotracer (approx. 100 kBq) was added to 200 µL of saline, and 100 µL of human plasma, respectively. Both samples were incubated at 37 °C for 10 min. MicroSpin™ columns were prepared according to the user instruction. Then 25 µL of the incubated radiotracer were given onto the columns and the devices were centrifuged (2000 × g, 2 min). Eluate and solid phase were analysed in the γ-counter (Wallac Wizard). The percentage of unbound radioligand was calculated as %free=cpmsolidphase/cpmsolidphase+cpmeluate . The sample in saline was used as control.

SMILES | specific binding to MCF-7-Y1 tumour slices (autoradiography) (MCF-7-Y1 tumour slices) | specific accumulation in MCF-7-Y1 cells (total radioactivity in each well = 100%) (MCF-7-Y1 cells) | logD [1] | tumour visualisation / specific tumour accumulation in PET (MCF-7-Y1 tumours) | fraction unbound at 10 min [2]
N/C(=N/C(=O)NCc1cn([C@@H]2OC(C[18F])[C@@H](O)C(O)C2O)nn1)NCCC[C@@H](NC(=O)C(c1ccccc1)c1ccccc1)C(=O)NCc1ccc(O)cc1 (stereo partly drawn) [[^18F]11, (2R)‐5‐{[(1Z)‐Amino({[({1‐[(2R,5S)‐6‐([^18F]fluoromethyl)‐3,4,5‐trihydroxyoxan‐2‐yl]‐1H‐1,2,3‐triazol‐4‐yl}methyl)carbamoyl]imino})methyl]amino}‐2‐(2,2‐diphenylacetamido)‐N‐[(4‐hydroxyphenyl)-methyl]pentanamide] | very low specific binding | almost no specific binding | 0.78 ± 0.005 | visualision of the tumour with the fluoroglycosylated radiotracer [^18F]11 failed | 0.42
N/C(=N/C(=O)NCc1cn(CCOCCOCCOCC[18F])nn1)NCCC[C@@H](NC(=O)C(c1ccccc1)c1ccccc1)C(=O)NCc1ccc(O)cc1 [[^18F]13, (2R)‐5‐{[(1Z)‐Amino[({[1‐(2‐{2‐[2‐(2‐[^18F]fluoroethoxy)ethoxy]ethoxy}ethyl)‐1H‐1,2,3‐triazol‐4‐yl]methyl}carbamoyl)imino]methyl]amino}‐2‐(2,2‐diphenylacetamido)‐N‐[(4‐hydroxyphenyl)-methyl]pentanamide] | marked specific binding | 1% | 1.49 ± 0.003 | displaceable and thus specific Y1R-mediated tumour acculuation in vivo; also recorded: enhanced and specific tumour uptake | 0.37
